Target: T1, human FXR (Homo sapiens, UniProt Q96RI1)
T1 construct: expressed in transfected cells; host or cells: HEK293 cells stably carrying a 5xGal4-response-element firefly luciferase reporter, transiently transfected with pcDNA3.1-Gal4-FXR
T1 sequence (Q96RI1 262-486 limits assumed): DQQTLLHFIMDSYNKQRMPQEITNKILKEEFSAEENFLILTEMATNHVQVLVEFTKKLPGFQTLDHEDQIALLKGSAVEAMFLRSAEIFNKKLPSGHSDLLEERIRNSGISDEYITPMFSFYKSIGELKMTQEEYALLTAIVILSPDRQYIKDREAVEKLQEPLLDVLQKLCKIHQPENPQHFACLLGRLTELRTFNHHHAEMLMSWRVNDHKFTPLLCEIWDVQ
Test: transient human FXR/Gal4-luciferase reporter assay
Type: cell-based
Details: Gal4-hFXR LBD fusion, luciferase reporter in HEK293 cells; response relative to 8 μM GW-4064
Outline: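 HEK293 cells stably carrying a 5×Gal4-response-element firefly luciferase reporter were transiently transfected with Gal4-hFXR. They were then incubated overnight at 37 °C with compound serial dilutions in medium containing 10% charcoal/dextran-stripped FBS. Luminescence was read after Steady-Glo addition.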

Point of comparison: `Cc1nc2ccc(-c3cccc(N(CC45CCC(c6nc(C7CC7)no6)(CC4)CC5)C(=O)C4CCOCC4)c3)cc2s1` [Example 91, N-((4-(3-cyclopropyl-1,2,4-oxadiazol-5-yl)bicyclo[2.2.2]octan-1-yl)methyl)-N-(3-(2-methylbenzo[d]thiazol-6-yl)phenyl)tetrahydro-2H-pyran-4-carboxamide], EC50 97 nM. Against it:
- CCn1cc(-c2cccc(N(CC34CCC(c5nc(C6CC6)no5)(CC3)CC4)C(=O)C3CCCOC3)c2)oc1=O (racemic) [Example 52, N-((4-(3-cyclopropyl-1,2,4-oxadiazol-5-yl)bicyclo[2.2.2]octan-1-yl)methyl)-N-(3-(3-ethyl-2-oxo-2,3-dihydrooxazol-5-yl)phenyl)tetrahydro-2H-pyran-3-carboxamide] — 14-fold higher, 1330 nM
- CC(F)(F)c1nc(C23CCC(CN(C(=O)C4CCC(F)(F)CC4)c4cccc(-c5ccc(OC(F)F)cc5)c4)(CC2)CC3)no1 [Example 111, N-((4-(5-(1,1-difluoroethyl)-1,2,4-oxadiazol-3-yl)bicyclo[2.2.2]octan-1-yl)methyl)-N-(4′-(difluoromethoxy)-[1,1′-biphenyl]-3-yl)-4,4-difluorocyclohexane-1-carboxamide] — within 1.5-fold, 69 nM
- O=C(C1CCC(F)(F)CC1)N(CC12CCC(c3nc(C4CC4)no3)(CC1)CC2)c1cccc(-c2nc(C3CC3)no2)c1 [Example 14, N-((4-(3-cyclopropyl-1,2,4-oxadiazol-5-yl)bicyclo[2.2.2]octan-1-yl)methyl)-N-(3-(3-cyclopropyl-1,2,4-oxadiazol-5-yl)phenyl)-4,4-difluorocyclohexane-1-carboxamide] — 2.8-fold higher, 272 nM
- Cn1nc(C2CC2)cc1C12CCC(CN(C(=O)C3CCS(=O)(=O)CC3)c3cccc(-c4cc(C5CC5)no4)c3)(CC1)CC2 [Example 138, N-((4-(3-cyclopropyl-1-methyl-1H-pyrazol-5-yl)bicyclo[2.2.2]octan-1-yl)methyl)-N-(3-(3-cyclopropylisoxazol-5-yl)phenyl)tetrahydro-2H-thiopyran-4-carboxamide 1,1-dioxide] — 16-fold higher, 1580 nM
- CCCc1ncc(-c2cccc(N(CC34CCC(c5nc(C6CC6)no5)(CC3)CC4)C(=O)C3CCCCC3)c2)o1 [Example 28, N-((4-(3-cyclopropyl-1,2,4-oxadiazol-5-yl)bicyclo[2.2.2]octan-1-yl)methyl)-N-(3-(2-propyloxazol-5-yl)phenyl)cyclohexanecarboxamide] — 2.9-fold lower, 34 nM
- COc1ncc(-c2cccc(N(CC34CCC(c5nc(C6CC6)no5)(CC3)CC4)C(=O)C3CCCCC3)c2)o1 [Example 7, N-((4-(3-cyclopropyl-1,2,4-oxadiazol-5-yl)bicyclo[2.2.2]octan-1-yl)methyl)-N-(3-(2-methoxyoxazol-5-yl)phenyl)cyclohexanecarboxamide] — 1.9-fold lower, 51 nM
- CC(C)(O)c1coc(-c2cccc(N(CC34CCC(c5nc(C6CC6)no5)(CC3)CC4)C(=O)C3CCCCC3)c2)n1 [Example 21, N-((4-(3-cyclopropyl-1,2,4-oxadiazol-5-yl)bicyclo[2.2.2]octan-1-yl)methyl)-N-(3-(4-(2-hydroxypropan-2-yl)oxazol-2-yl)phenyl)cyclohexanecarboxamide] — 2-fold higher, 194 nM
- COc1cc(-c2cccc(N(CC34CCC(c5nc(C6CC6)no5)(CC3)CC4)C(=O)C3CCCCC3)c2)no1 [Example 12, N-((4-(3-cyclopropyl-1,2,4-oxadiazol-5-yl)bicyclo[2.2.2]octan-1-yl)methyl)-N-(3-(5-methoxyisoxazol-3-yl)phenyl)cyclohexanecarboxamide] — within 1.5-fold, 129 nM
- CC(F)(F)c1nc(C23CCC(CN(C(=O)C4CCS(=O)(=O)CC4)c4cccc(-c5ccc(OC(F)F)cc5)c4)(CC2)CC3)no1 [Example 110, N-((4-(5-(1,1-difluoroethyl)-1,2,4-oxadiazol-3-yl)bicyclo[2.2.2]octan-1-yl)methyl)-N-(4′-(difluoromethoxy)-[1,1′-biphenyl]-3-yl)tetrahydro-2H-thiopyran-4-carboxamide 1,1-dioxide] — 4.8-fold higher, 467 nM
- CN1CCC(C(=O)N(CC23CCC(c4noc(C(C)(C)C)n4)(CC2)CC3)c2cccc(-c3nc(C4CC4)no3)c2)CC1 [Example 118, N-((4-(5-(tert-butyl)-1,2,4-oxadiazol-3-yl)bicyclo[2.2.2]octan-1-yl)methyl)-N-(3-(3-cyclopropyl-1,2,4-oxadiazol-5-yl)phenyl)-1-methylpiperidine-4-carboxamide] — 20-fold higher, 1950 nM
- O=C(C1CCCCC1)N(CC12CCC(c3nc(C4CC4)no3)(CC1)CC2)c1cccc(-c2cnc(C3CC3)o2)c1 [Example 22, N-((4-(3-cyclopropyl-1,2,4-oxadiazol-5-yl)bicyclo[2.2.2]octan-1-yl)methyl)-N-(3-(2-cyclopropyloxazol-5-yl)phenyl)cyclohexanecarboxamide] — 2.6-fold lower, 37 nM
- CC(F)(F)c1nc(C23CCC(CN(C(=O)C4CCC(F)(F)CC4)c4cccc(-c5ccc(S(C)(=O)=O)cc5)c4)(CC2)CC3)no1 [Example 130, N-((4-(5-(1,1-difluoroethyl)-1,2,4-oxadiazol-3-yl)bicyclo[2.2.2]octan-1-yl)methyl)-4,4-difluoro-N-(4′-(methylsulfonyl)-[1,1′-biphenyl]-3-yl)cyclohexane-1-carboxamide] — 2.1-fold higher, 205 nM

— US12227496B2 (BRISTOL-MYERS SQUIBB COMPANY, priority 2019, dated 2025)
